Data reported in US20210252104A1, “ANTIBACTERIAL PEPTIDE MONOMERS AND COMBINATIONS FOR CO-THERAPY” (ARREVUS, INC., priority 2018, published 2021).
In brackets after ≈: the same amount, converted by molar mass. Read-outs that look alike come from different tables or passages of the source. Non-standard residues stand in square brackets, D forms with d. Residues, ends and D or L forms follow the SMILES beside them. Ac6c = NC1(C(=O)O)CCCCC1

Experiments:
[1] = target: 70 kDa bacterial heat shock protein DnaK (Escherichia coli, UniProt P0A6Y8); assay: Binding to DnaK
Excerpt: The bacterial target of peptide monomers described herein, such as Chex1-Arg20, is believed to be the C-terminal D-E helix of the 70 kDa bacterial heat shock protein DnaK (Otvos et al., J. Med. Chem. 48:5349 (2005); Kragol et al., Biochemistry 40:3016 (2001); Bikker et al., Chem. Biol. Drug Des. 68:148 (2006)). DnaK is a 650-residue protein comprised of 3 distinct domains: (1) N-terminal nucleotide binding domain, (2) C-terminal substrate binding domain and (3) flexible linking domain. […] Peptide monomers described herein bind to DnaK from multiple bacterial species. The MPC of Chex1-Arg20 is reported to be >100 μM, supporting the conclusion that the antibacterial efficacy is […] non-membranolytic. Because DnaK is present in all bacteria, peptide monomers described herein are effective against a wide variety of bacteria and may be effective in combination with all classes of antibiotics.

[2] = system: Burkholderia pseudomallei 1026b; format: in vivo
[3] = reported value; cited from earlier work
E. coli 5770 = assay: Mice challenged ip with E. coli 5770, blood bacterial counts
[4] = Immunogenicity, antibody production by ELISA; format: in vivo; conditions: mice; 5 mg/kg sc twice in a 3-wk interval; blood 4 weeks after second immunization
[5] = Post-antibiotic effect (PAE)
Excerpt: Post-antibiotic Effect (PAE).

A. baumannii HUMC1 = assay: Bacteremia synergy assay 3 (murine bacteremia model); format: in vivo
[6] = system: A. baumannii strain (BAA-1605); assay: microbe, parasite or virus in culture; format: cell-based; conditions: Acinetobacter baumannii, BAA1605, read-out: MIC
K. pneumoniae K97/09 [7] = conditions: K. pneumoniae K97/09; no unit in table (mg/L)
K. pneumoniae K97/09 [8] = assay: microbe, parasite or virus in culture; conditions: Klebsiella pneumoniae
[9] = system: Acinetobacter baumannii BAA-1805 (MACI); assay: microbe, parasite or virus in culture; conditions: BAA1805, read-out: MACI MIC (mg/L)
K. pneumoniae K97/09 [10] = assay: FIC checkerboard assay (combinations); format: cell-based; conditions: K. pneumoniae K97/09

Chain of 70 kDa bacterial heat shock protein DnaK (P0A6Y8 whole entry, the tested form may be a part): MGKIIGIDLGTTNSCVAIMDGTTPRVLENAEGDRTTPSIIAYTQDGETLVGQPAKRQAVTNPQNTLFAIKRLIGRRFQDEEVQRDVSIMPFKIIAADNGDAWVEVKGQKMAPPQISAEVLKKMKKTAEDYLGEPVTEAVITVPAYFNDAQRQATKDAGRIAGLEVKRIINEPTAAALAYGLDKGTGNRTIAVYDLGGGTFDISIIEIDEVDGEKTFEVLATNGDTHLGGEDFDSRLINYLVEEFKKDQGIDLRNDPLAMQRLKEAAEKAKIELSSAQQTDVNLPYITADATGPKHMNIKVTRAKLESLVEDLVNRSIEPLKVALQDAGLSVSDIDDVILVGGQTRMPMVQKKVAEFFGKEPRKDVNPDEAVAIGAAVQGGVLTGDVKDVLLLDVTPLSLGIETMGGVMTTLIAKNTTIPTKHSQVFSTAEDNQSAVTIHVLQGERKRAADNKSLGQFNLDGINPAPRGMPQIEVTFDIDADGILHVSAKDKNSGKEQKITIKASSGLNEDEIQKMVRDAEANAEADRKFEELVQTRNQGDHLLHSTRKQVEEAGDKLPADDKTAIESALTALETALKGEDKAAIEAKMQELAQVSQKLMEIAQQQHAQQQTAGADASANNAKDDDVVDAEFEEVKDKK

Work on `CC(C)C[C@H](NC(=O)[C@H](Cc1ccc(O)cc1)NC(=O)[C@@H]1CCCN1C(=O)[C@H](CCCNC(=N)N)NC(=O)[C@@H]1CCCN1C(=O)[C@H](CCCCN)NC(=O)[C@H](CC(=O)O)NC(=O)[C@@H]1CCCN1C(=O)[C@H](CCCNC(=N)N)NC(=O)C1(N)CCCCC1)C(=O)N1CCC[C@H]1C(=O)N[C@@H](CCCNC(=N)N)C(=O)N1CCC[C@H]1C(=O)N[C@@H](CCCNC(=N)N)C(=O)N1CCC[C@H]1C(=O)N1CCC[C@H]1C(=O)N[C@@H](CCCNC(=N)N)C(=O)N1CCC[C@H]1C(=O)N[C@H](C(=O)N[C@@H](CCCNC(=N)N)C(N)=O)C(C)C` [Example 1, Chex-RPDKPRPYLPRPRPPRPVR-NH2] (H-[Ac6c]RPDKPRPYLPRPRPPRPVR-NH2) yielded a Kd [1] of 410 nM, an MIC (P. aeruginosa ATCC 47085) of 56.3 ± 4.5 µM (≈ 139 µg/mL) and an MIC (K. Pneumoniae ATCC 13883) of 0.8 ± 0.0 µM (≈ 1.98 µg/mL). The “Median survival (days post-challenge)” value ([2]; Chex1-Arg20 5 mg/kg im monotherapy) was 4 days post-challenge, the Rescue of mice ([2]; Chex1-Arg20 monotherapy) was “failed to rescue any mouse” and the “B. pseudomallei load in survivals (CFU/spleen)” value ([2]; in vivo, 5 mg/kg) was “No survival”. The Number of deaths ([2]; in vivo, 5 mg/kg) was 10, the MIC (A. Baumannii ATCC 19606) was greater than 100 µM and the MPC [3] was greater than 100 µM. The “Bacterial counts in blood” value (E. coli 5770; 2.5 mg/kg ip, 4 h after challenge (before first dose)) was 3.68 × 10^7 CFU/mL, the “Bacterial counts in blood” value (E. coli 5770; 2.5 mg/kg ip, 8 h after challenge) was 4.2 × 10^6 CFU/mL and the “Bacterial counts in blood” value (E. coli 5770; 2.5 mg/kg ip, 12 h after challenge) was <1.7 × 10^6 CFU/mL. For the same molecule, the “Bacterial counts in blood” value (E. coli 5770; 2.5 mg/kg ip, 16 h after challenge) was <1 × 10^6 CFU/mL, the “Bacterial counts in blood” value (E. coli 5770; 2.5 mg/kg ip, 24 h after challenge) was <4.8 × 10^5 CFU/mL and the “Improvement of blood bacterial load” value (E. coli 5770; 2.5 mg/kg ip, by 24 h) was “not statistically significant”. For the same molecule, the “Reduction of blood bacterial load” value (E. coli 5770; 2.5 mg/kg ip, during the 12-h treatment period) was 1.5-2 log 10 units, the “Reduction of blood bacterial counts after inoculation” value (E. coli 5770; 5 mg/kg ip) was greater than 2 log 10 CFU/mL and the “Bacterial counts in blood” value (E. coli 5770; 5 mg/kg ip, 4 h after challenge (before first dose)) was 3.68 × 10^7 CFU/mL. For the same molecule, the “Bacterial counts in blood” value (E. coli 5770; 5 mg/kg ip, 8 h after challenge) was 4.3 × 10^5 CFU/mL, the “Bacterial counts in blood” value (E. coli 5770; 5 mg/kg ip, 12 h after challenge) was 1.1 × 10^6 CFU/mL and the “Bacterial counts in blood” value (E. coli 5770; 5 mg/kg ip, 16 h after challenge) was <1.1 × 10^5 CFU/mL. The “Bacterial counts in blood” value (E. coli 5770; 5 mg/kg ip, 24 h after challenge) was <1 × 10^3 CFU/mL, the Blood sterilization (E. coli 5770; 5 mg/kg ip, at 24 h) was “complete sterilization of the blood” and the “Time after the last peptide treatment by which the blood was sterilized” value (E. coli 5770; 10 mg/kg ip) was no more than 4 h. The “Bacterial counts in blood” value (E. coli 5770; 10 mg/kg ip, 4 h after challenge (before first dose)) was 3.68 × 10^7 CFU/mL, the “Bacterial counts in blood” value (E. coli 5770; 10 mg/kg ip, 8 h after challenge) was 2.4 × 10^5 CFU/mL and the “Bacterial counts in blood” value (E. coli 5770; 10 mg/kg ip, 12 h after challenge) was 2.9 × 10^5 CFU/mL. The “Bacterial counts in blood” value (E. coli 5770; 10 mg/kg ip, 16 h after challenge) was <1 × 10^3 CFU/mL, the “Bacterial counts in blood” value (E. coli 5770; 10 mg/kg ip, 24 h after challenge) was <1 × 10^3 CFU/mL and the MIC (E. Coli ATCC 29222) was 2.6 ± 0.7 µM (≈ 6.44 µg/mL). For the same molecule, the “Antibody production by ELISA” value [4] was “Neither IgG1, IgG2a, IgG3, IgM, nor IgE are observed”, the “Post-antibiotic effect (PAE)” value [5] was 14 h and the MIC (E. coli UNT167-1) was 32 µg/mL (≈ 12.9 µM). The “Complete response (negative blood culture), test animals” value (A. baumannii HUMC1; ARV-1502 5.0 mg/kg treatment group) was 100% and the “Negative blood culture of A. baumannii” value (A. baumannii HUMC1; ARV-1502 1.25-5.0 mg/kg treatment groups) was “dose-dependent negative blood culture”.
In the case of `C[C@@H](O)[C@H]1C(=O)N2C(C(=O)O)=C(SCCN=CN)C[C@H]12` [imipenem], the MIC [6] is reported as 64 µg/mL (≈ 214 µM), the “MIC of antibiotic alone” value (K. pneumoniae K97/09 [7]) is reported as greater than 256 and the MIC (K. pneumoniae K97/09 [8]; K97/09) is reported as greater than 256 mg/L. For the same molecule, the MIC (K. pneumoniae K97/09 [8]; K97/09, read-out: KPC MIC (mg/L)) was greater than 256 mg/L, the MIC [9] was 64 mg/L (≈ 214 µM) and the ΣFIC (K. pneumoniae K97/09 [10]; antibiotic + ARV-1501) was 0.5. The “MIC of antibiotic + ARV-1501” value (K. pneumoniae K97/09 [10]; antibiotic in combination with ARV-1501, no unit in table) was 4.
